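Values below derive from 48-hour exposures of cells grown in 96-well plates, with endpoints linearly interpolated between the two concentrations bracketing the appropriate inhibition level. GI50 = concentration required for 50% inhibition of growth. TGI is the concentration that stops growth completely.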
Columns and labels:
Assay in all cases: NCI-60 cell line screen, 48 h
TK-10 renal = system: TK-10 renal
NCI-H23 lung = system: NCI-H23 lung
MDA-MB-435 = system: MDA-MB-435
SF-295 CNS = system: SF-295 CNS
A549 NSCLC = system: A549 NSCLC
CCRF-CEM leukemia = system: CCRF-CEM leukemia
HT29 colon = system: HT29 colon
LOX IMVI melanoma = system: LOX IMVI melanoma
RPMI-8226 leukemia = system: RPMI-8226 leukemia
NCI/ADR-RES ovarian = system: NCI/ADR-RES ovarian
UACC-62 melanoma = system: UACC-62 melanoma
SNB-19 CNS = system: SNB-19 CNS
SW-620 colon = system: SW-620 colon
SNB-75 CNS = system: SNB-75 CNS
SK-OV-3 ovarian = system: SK-OV-3 ovarian
HOP-62 NSCLC = system: HOP-62 NSCLC
EKVX NSCLC = system: EKVX NSCLC
UACC-257 melanoma = system: UACC-257 melanoma
HOP-92 NSCLC = system: HOP-92 NSCLC
PC-3 prostate = system: PC-3 prostate
KM12 colon = system: KM12 colon
OVCAR-4 ovarian = system: OVCAR-4 ovarian
HS 578T breast = system: HS 578T breast
ACHN renal = system: ACHN renal
HCC-2998 colon = system: HCC-2998 colon
NCI-H522 lung = system: NCI-H522 lung
SR leukemia = system: SR leukemia
NCI-H460 lung = system: NCI-H460 lung
T-47D breast = system: T-47D breast

O=C1CCC/C=C\C[C@H]2C=CC(=O)/C2=C/C[C@H](CCc2cccc(C(F)(F)F)c2)O1
GI50 (TK-10 renal): 2660 nM
TGI (TK-10 renal): 5190 nM
GI50 (NCI-H23 lung): 2160 nM
TGI (NCI-H23 lung): 5890 nM
GI50 (MDA-MB-435): 462 nM
TGI (MDA-MB-435): 2700 nM
GI50 (SF-295 CNS): 2150 nM
TGI (SF-295 CNS): 4830 nM
GI50 (A549 NSCLC): 2310 nM
TGI (A549 NSCLC): 5560 nM
GI50 (CCRF-CEM leukemia): 397 nM
TGI (CCRF-CEM leukemia): 11400 nM
GI50 (HT29 colon): 1110 nM
TGI (HT29 colon): 3390 nM
GI50 (LOX IMVI melanoma): 440 nM
TGI (LOX IMVI melanoma): 1820 nM
GI50 (RPMI-8226 leukemia): 628 nM
TGI (RPMI-8226 leukemia): 6730 nM
GI50 (NCI/ADR-RES ovarian): 748 nM
TGI (NCI/ADR-RES ovarian): 11300 nM
GI50 (UACC-62 melanoma): 2340 nM
TGI (UACC-62 melanoma): 7520 nM
GI50 (SNB-19 CNS): 2220 nM
TGI (SNB-19 CNS): 7040 nM
GI50 (SW-620 colon): 2870 nM
TGI (SW-620 colon): 9060 nM
GI50 (SNB-75 CNS): 2020 nM
TGI (SNB-75 CNS): 5210 nM
GI50 (SK-OV-3 ovarian): 2920 nM
TGI (SK-OV-3 ovarian): 7750 nM
GI50 (HOP-62 NSCLC): 2840 nM
TGI (HOP-62 NSCLC): 6830 nM
GI50 (EKVX NSCLC): 1940 nM
TGI (EKVX NSCLC): 4080 nM
GI50 (UACC-257 melanoma): 2110 nM
TGI (UACC-257 melanoma): 5180 nM
GI50 (HOP-92 NSCLC): 2290 nM
TGI (HOP-92 NSCLC): 4770 nM
GI50 (PC-3 prostate): 1790 nM
TGI (PC-3 prostate): 4740 nM
GI50 (KM12 colon): 1640 nM
TGI (KM12 colon): 3350 nM
GI50 (OVCAR-4 ovarian): 3780 nM
TGI (OVCAR-4 ovarian): 15900 nM
GI50 (HS 578T breast): 4780 nM
TGI (HS 578T breast): 56700 nM
GI50 (ACHN renal): 1190 nM
TGI (ACHN renal): 2600 nM
GI50 (HCC-2998 colon): 2010 nM
TGI (HCC-2998 colon): 3540 nM
GI50 (NCI-H522 lung): 1230 nM
TGI (NCI-H522 lung): 3770 nM
GI50 (SR leukemia): 627 nM
TGI (SR leukemia): 5620 nM
GI50 (NCI-H460 lung): 3180 nM
TGI (NCI-H460 lung): 10100 nM
GI50 (T-47D breast): 1780 nM

— PubChem BioAssay (NCI)
